Measured values: patent publication US10941132B2, “Pyrazole derivatives” (HUA MEDICINE (SHANGHAI) Ltd., priority 2016, dated 2021)

What follows are molecules tested against T1, recombinant rat mGluR5 (Rattus norvegicus, UniProt P31424) (assay: Functional calcium flux assay (FLIPR), antagonist evaluation against glutamate-evoked [Ca2+]i increase). Conditions: Table 1; HEK293 cells stably expressing recombinant rat mGluR5; 15 min incubation of test compound, then submaximal glutamate; read-out: IC50 value (FLIPR assay).
T1 construct: expressed in transfected cells
Assay type: cell-based
Protocol: Functional Calcium Clux Assay Methodology
For functional assays, HEK293 cells stably expressing recombinant rat mGluR5 were seeded in 384-well plates and dye loaded using Fluo-8. Cells were then washed to remove the un-incorporated dye. Antagonist evaluation was performed following a 15 min incubation of the test compound followed by the addition of submaximal concentration of glutamate. Intracellular calcium ([Ca^2+]i) measurements were performed using a fluorometric imaging plate reader (FLIPR, Molecular Devices). The glutamate-evoked increase in [Ca^2′]i in the presence of the test compounds was compared to the response to glutamate alone (the positive control). Antagonist inhibition curves were fitted with a 4-parameter logistic equation giving IC50 values, and Hill coefficients using an iterative nonlinear curve fitting algorithm.
The tables below provide IC50 data in this assay. In the activity column, A=IC50>1,000 and ≤5,000 nM; B=IC50>500 and ≤1,000 nM and C=IC50≤500 nM.

T1 sequence (P31424 21-1203): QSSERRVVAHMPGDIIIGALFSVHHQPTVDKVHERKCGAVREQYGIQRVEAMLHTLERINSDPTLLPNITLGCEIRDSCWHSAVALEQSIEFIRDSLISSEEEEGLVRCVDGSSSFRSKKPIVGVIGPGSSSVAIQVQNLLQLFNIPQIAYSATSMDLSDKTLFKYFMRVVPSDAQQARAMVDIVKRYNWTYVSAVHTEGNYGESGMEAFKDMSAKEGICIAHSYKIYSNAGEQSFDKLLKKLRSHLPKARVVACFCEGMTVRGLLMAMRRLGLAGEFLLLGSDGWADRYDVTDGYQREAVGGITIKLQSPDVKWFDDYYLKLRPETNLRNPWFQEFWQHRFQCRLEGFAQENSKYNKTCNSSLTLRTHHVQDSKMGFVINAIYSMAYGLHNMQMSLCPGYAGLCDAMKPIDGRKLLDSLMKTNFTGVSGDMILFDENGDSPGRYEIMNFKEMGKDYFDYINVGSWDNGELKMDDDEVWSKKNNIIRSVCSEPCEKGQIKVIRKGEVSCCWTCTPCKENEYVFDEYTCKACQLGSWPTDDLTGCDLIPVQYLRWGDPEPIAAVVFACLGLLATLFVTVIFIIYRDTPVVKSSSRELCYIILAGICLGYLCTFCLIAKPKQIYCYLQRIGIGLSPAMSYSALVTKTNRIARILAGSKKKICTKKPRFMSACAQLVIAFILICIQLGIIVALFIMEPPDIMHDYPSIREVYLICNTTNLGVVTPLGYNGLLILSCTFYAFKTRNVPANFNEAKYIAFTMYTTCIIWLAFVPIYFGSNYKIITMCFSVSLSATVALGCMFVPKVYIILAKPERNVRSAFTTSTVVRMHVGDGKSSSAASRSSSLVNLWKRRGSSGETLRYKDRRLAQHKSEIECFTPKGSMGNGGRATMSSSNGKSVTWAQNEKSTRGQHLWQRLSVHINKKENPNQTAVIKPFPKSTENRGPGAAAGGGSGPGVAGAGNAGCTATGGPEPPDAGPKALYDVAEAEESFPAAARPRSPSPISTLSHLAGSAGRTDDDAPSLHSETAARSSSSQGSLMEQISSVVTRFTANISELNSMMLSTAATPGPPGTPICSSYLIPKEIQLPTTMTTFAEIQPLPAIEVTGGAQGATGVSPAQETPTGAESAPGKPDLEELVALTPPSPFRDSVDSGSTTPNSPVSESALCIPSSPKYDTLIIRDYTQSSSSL

Question: Which IC50 does the source give for `COCCOc1nn(-c2ccc(OC(F)(F)F)cc2)cc1C#Cc1ccccn1` [Compound 31, 2-((3-(2-methoxyethoxy)-1-(4-(trifluoromethoxy)phenyl)-1H-pyrazol-4-yl)ethynyl)pyridine] here?
Answer: 1000 to 5000 nM

Question: For `COc1c(C#Cc2ccccn2)c(C)nn1-c1ccc(OC(F)(F)F)cc1` [Compound 10, 2-((3-methyl-5-methoxy-1-(4-(trifluoromethoxy)phenyl)-1H-pyrazol-4-yl)ethynyl) pyridine], which IC50 is on record?
Answer: 1000 to 5000 nM

Question: `Fc1cncc(-n2cc(C#Cc3ccccn3)cn2)c1` [Compound 33] was tested. Which IC50 did it give?
Answer: ≤ 500 nM

Question: How did the IC50 turn out when `N#Cc1cc(F)cc(-n2cc(C#Cc3cccc(Cl)c3)cn2)c1` [Compound 77, 3-fluoro-5-(4-(3-chloro-phenylethynyl)-1H-pyrazol-1-yl) benzonitrile] was run?
Answer: 500 to 1000 nM

Question: How did the IC50 turn out when `N#Cc1cc(F)cc(-n2cc(C#Cc3ccccn3)c(Cl)n2)c1` [Compound 38, 3-(3-chloro-4-(pyridin-2-ylethynyl)-1H-pyrazol-1-yl)-5-fluorobenzonitrile] was run?
Answer: ≤ 500 nM

Question: How did the IC50 turn out when `Fc1ccc(-n2cc(C#Cc3ccnc(Cl)c3)cn2)cc1` [Compound 85, 2-chloro-4-((1-(4-fluorophenyl)-1H-pyrazol-4-yl)ethynyl)pyridine] was run?
Answer: ≤ 500 nM

Question: For `Cc1nn(-c2ccc(OC(F)(F)F)cc2)c(C)c1C#Cc1ccccn1` [Compound 4, 2-((3,5-dimethyl-1-(4-(trifluoromethoxy)phenyl)-H-pyrazol-4-yl)ethynyl)pyridine], which IC50 is on record?
Answer: ≤ 500 nM

Question: Which IC50 does the source give for `N#Cc1cc(F)cc(-n2cc(C#Cc3ccccn3)c(C3CC3)n2)c1` [Compound 54, 3-(3-cyclopropyl-4-(pyridin-2-ylethynyl)-1H-pyrazol-1-yl)-5-fluorobenzonitrile] here?
Answer: ≤ 500 nM

Question: With `COCCOc1ccc(-n2cc(C#Cc3ccccn3)cn2)cc1` [Compound 26, 2-((1-(4-(2-methoxyethoxy)phenyl)-1H-pyrazol-4-yl)ethynyl) pyridine] as the molecule, how does the IC50 read?
Answer: ≤ 500 nM

Question: With `COCCOc1nn(-c2ccc(F)cn2)cc1C#Cc1ccccn1` [Compound 64, S-fluoro-2-(3-(2-methoxyethoxy)-4-(pyridin-2-ylethynyl)-1H-pyrazol-1-yl)pyridine] as the molecule, how does the IC50 read?
Answer: 500 to 1000 nM

Question: Which IC50 does the source give for `Fc1ccc(-n2ncc(C#Cc3ccccn3)c2Cl)cc1` [Compound 20] here?
Answer: ≤ 500 nM

Question: How did the IC50 turn out when `Fc1ccc(-n2ncc(C#Cc3ncccn3)c2Cl)cn1` [Compound 19, 2-((5-chloro-1-(6-fluoropyridin-3-yl)-1H-pyrazol-4-yl)ethynyl)pyrimidine] was run?
Answer: ≤ 500 nM

Question: For `FC(F)(F)c1ccc(-n2ncc(C#Cc3ncccn3)c2Cl)cc1` [Compound 36, 2-((5-chloro-1-(4-(trifluoromethyl)phenyl)-1H-pyrazol-4-yl)ethynyl) pyrimidine], which IC50 is on record?
Answer: ≤ 500 nM

Question: Which IC50 does the source give for `Cc1nn(-c2cc(F)cc(C#N)c2)c(C(F)(F)F)c1C#Cc1ccccn1` [Compound 11, 3-fluoro-5-(3-methyl-4-(pyridin-2-ylethynyl)-5-(trifluoromethyl)-1H-pyrazol-1-yl)benzonitrile] here?
Answer: 1000 to 5000 nM

Question: `Cc1nn(-c2ccc(F)cc2)c(C)c1C#Cc1ccncn1` [Compound 3, 4-((1-(4-fluorophenyl)-3,5-dimethyl-1H-pyrazol-4-yl)ethynyl) pyrimidine] was tested. Which IC50 did it give?
Answer: ≤ 500 nM

Question: How did the IC50 turn out when `COc1c(C#Cc2ccccn2)cnn1-c1ccc(F)cc1` [Compound 51, 2-((1-(4-fluorophenyl)-5-methoxy-1H-pyrazol-4-yl)ethynyl)pyridine] was run?
Answer: ≤ 500 nM

Question: For `FC(F)(F)Oc1ccc(-n2cc(C#Cc3cccc(Cl)c3)cn2)cc1` [Compound 92, 4-((3-chlorophenyl)ethynyl)-1-(4-(trifluoromethoxy)phenyl)-1H-pyrazole], which IC50 is on record?
Answer: ≤ 500 nM

Question: Which IC50 does the source give for `Cc1nn(-c2ccc(F)nc2)c(C)c1C#Cc1ccccn1` [Compound 24] here?
Answer: ≤ 500 nM

Question: How did the IC50 turn out when `Cc1nn(-c2ccc(OC(F)(F)F)cc2)c(C)c1C#Cc1ncccn1` [Compound 14, 2-((3,5-dimethyl-1-(4-(trifluoromethoxy)phenyl)-1H-pyrazol-4-yl)ethynyl) pyrimidine] was run?
Answer: ≤ 500 nM

Question: For `FC(F)(F)Oc1ccc(-n2cc(C#Cc3ccccn3)c(Cl)n2)cc1` [Compound 40, 2-((3-chloro-1-(4-(trifluoromethoxy)phenyl)-1H-pyrazol-4-yl)ethynyl)pyridine], which IC50 is on record?
Answer: ≤ 500 nM

Question: For `CS(=O)(=O)c1ccc(-n2cc(C#Cc3ccccn3)cn2)cc1` [Compound 46, 2-((1-(4-(methylsulfonyl)phenyl)-1H-pyrazol-4-yl)ethynyl)pyridine], which IC50 is on record?
Answer: 500 to 1000 nM

Question: `N#Cc1cc(F)cc(-n2cc(C#Cc3cccnc3)cn2)c1` [Compound 76, 3-fluoro-5-(4-(pyridin-3-ylethynyl)-1H-pyrazol-1-yl)benzonitrile] was tested. Which IC50 did it give?
Answer: 1000 to 5000 nM

Question: With `N#Cc1cc(F)cc(-n2cc(C#Cc3ccccn3)c(OC(F)F)n2)c1` [Compound 47, 3-(3-(difluoromethoxy)-4-(pyridin-2-ylethynyl)-1H-pyrazol-1-yl)-5-fluorobenzonitrile] as the molecule, how does the IC50 read?
Answer: ≤ 500 nM

Question: `COCCOc1ccc(-n2cc(C#Cc3ccccn3)cn2)cn1` [Compound 28, 2-(2-methoxyethoxy)-5-(4-(pyridin-2-ylethynyl)-1H-pyrazol-1-yl) pyridine] was tested. Which IC50 did it give?
Answer: ≤ 500 nM

Question: For `Fc1ccc(-n2ncc(C#Cc3ccccn3)c2Cl)cn1` [Compound 18], which IC50 is on record?
Answer: ≤ 500 nM

Question: With `Cc1nn(-c2ccc(F)cn2)cc1C#Cc1ccccn1` [Compound 63, 5-fluoro-2-(3-methyl-4-(pyridin-2-ylethynyl)-1H-pyrazol-1-yl)] as the molecule, how does the IC50 read?
Answer: ≤ 500 nM

Question: With `COc1c(C#Cc2ccccn2)cnn1-c1ccc(F)cn1` [Compound 62, 5-fluoro-2-(5-methoxy-4-(pyridin-2-ylethynyl)-1H-pyrazol-1-yl)] as the molecule, how does the IC50 read?
Answer: ≤ 500 nM

Question: With `COc1nn(-c2ccc(F)cc2)c(C)c1C#Cc1ccccn1` [Compound 8, 2-((1-(4-fluorophenyl)-3-methoxy-5-methyl-1H-pyrazol-4-yl)ethynyl)pyridine] as the molecule, how does the IC50 read?
Answer: ≤ 500 nM

Question: How did the IC50 turn out when `Fc1ccc(-n2cc(C#Cc3ccccn3)cn2)cc1` [Compound 82, 2-((1-(4-fluorophenyl)-1H-pyrazol-4-yl)ethynyl)pyridine] was run?
Answer: ≤ 500 nM

Same assay, conditions: Table 2; HEK293 cells stably expressing recombinant rat mGluR5; 15 min incubation of test compound, then submaximal glutamate; read-out: IC50 (FLIPR assay)

Question: With `Cc1cc(C#Cc2ccccn2)nn1-c1ccc(F)cn1` [Compound 73, 5-fluoro-2-(5-methyl-3-(pyridin-2-ylethynyl)-1H-pyrazol-1-yl)] as the molecule, how does the IC50 read?
Answer: ≤ 500 nM

Question: Which IC50 does the source give for `Cc1cc(C#Cc2cnccn2)nn1-c1ccc(OC(F)(F)F)cc1` [Compound 134, 2-((5-methyl-1-(4-(trifluoromethoxy)phenyl)-H-pyrazol-3-yl)ethynyl)pyrazine] here?
Answer: 1000 to 5000 nM

Question: How did the IC50 turn out when `Cc1cc(C#Cc2ncccn2)nn1-c1cc(F)cc(C#N)c1` [Compound 101, 3-fluoro-5-(5-methyl-3-(pyrimidin-2-ylethynyl)-H-pyrazol-1-yl) Benzonitrile] was run?
Answer: ≤ 500 nM

Question: `N#Cc1cc(F)cc(-n2ccc(C#Cc3cnccn3)n2)c1` [Compound 111, 3-fluoro-5-(3-(pyrazin-2-ylethynyl)-1H-pyrazol-1-yl)benzonitrile] was tested. Which IC50 did it give?
Answer: ≤ 500 nM

Question: How did the IC50 turn out when `FC(F)(F)Oc1ccc(-n2ccc(C#Cc3cccc(Cl)c3)n2)cc1` [Compound 122, 3-((3-chlorophenyl)ethynyl)-1-(4-(trifluoromethoxy)phenyl)-1H-pyrazole] was run?
Answer: 1000 to 5000 nM

Question: `Cc1cn(-c2ccc(F)cn2)nc1C#Cc1ccccn1` [Compound 72, 5-fluoro-2-(4-methyl-3-(pyridin-2-ylethynyl)-1H-pyrazol-1-yl) pyridine] was tested. Which IC50 did it give?
Answer: 500 to 1000 nM

Question: With `Cc1cc(C#Cc2ncccn2)nn1-c1ccc(F)cc1` [Compound 128, 2-((1-(4-fluorophenyl)-5-methyl-1H-pyrazol-3-yl)ethynyl)] as the molecule, how does the IC50 read?
Answer: 1000 to 5000 nM

Question: For `Cc1cc(C#Cc2ccccc2)nn1-c1cc(F)cc(C#N)c1` [Compound 96, 3-fluoro-5-(5-methyl-3-(phenylethynyl)-1H-pyrazol-1-yl) benzonitrile], which IC50 is on record?
Answer: ≤ 500 nM

Question: For `Cc1cc(C#Cc2ccccn2)nn1-c1cc(F)cc(C#N)c1` [Compound 97, 3-fluoro-5-(5-methyl-3-(pyridin-2-ylethynyl)-1H-pyrazol-1-yl) benzonitrile], which IC50 is on record?
Answer: ≤ 500 nM

Question: `Fc1ccc(-n2ccc(C#Cc3ccccn3)n2)nc1` [Compound 67, 5-fluoro-2-(3-(pyridin-2-ylethynyl)-1H-pyrazol-1-yl)pyridine] was tested. Which IC50 did it give?
Answer: ≤ 500 nM

Question: How did the IC50 turn out when `C(#Cc1ccn(-c2ccccn2)n1)c1ccccn1` [Compound 71, 2-((1-(pyridin-2-yl)-1H-pyrazol-3-yl)ethynyl)pyridine] was run?
Answer: ≤ 500 nM

Question: For `Cc1cc(C#Cc2ccnc(Cl)c2)nn1-c1cc(F)cc(C#N)c1` [Compound 100, 3-(3-((2-chloropyridin-4-yl)ethynyl)-5-methyl-1H-pyrazol-1-yl)-5-fluorobenzonitrile], which IC50 is on record?
Answer: ≤ 500 nM

Question: How did the IC50 turn out when `Cc1cc(C#Cc2cnccn2)nn1-c1ccc(F)cc1` [Compound 129, 2-((1-(4-fluorophenyl)-5-methyl-1H-pyrazol-3-yl)ethynyl)pyrazine] was run?
Answer: 1000 to 5000 nM

Question: Which IC50 does the source give for `FC(F)(F)Oc1ccc(-n2ccc(C#Cc3ncccn3)n2)cc1` [Compound 123, 2-((1-(4-(trifluoromethoxy)phenyl)-1H-pyrazol-3-yl)ethynyl) pyrimidine] here?
Answer: 1000 to 5000 nM

Question: How did the IC50 turn out when `Cc1cc(C#Cc2ccccn2)nn1-c1ccc(OC(F)(F)F)cc1` [Compound 136, 2-((5-methyl-1-(4-(trifluoromethoxy)phenyl)-1H-pyrazol-3-yl)ethynyl)pyridine] was run?
Answer: ≤ 500 nM

Question: For `N#Cc1cc(F)cc(-n2ccc(C#Cc3ccncc3)n2)c1` [Compound 110, 3-fluoro-5-(3-(pyridin-4-ylethynyl)-H-pyrazol-1-yl)benzonitrile], which IC50 is on record?
Answer: ≤ 500 nM

Question: With `FC(F)(F)Oc1ccc(-n2ccc(C#Cc3cccnc3)n2)cc1` [Compound 121, 3-((1-(4-(trifluoromethoxy)phenyl)-1H-pyrazol-3-yl)ethynyl) pyridine] as the molecule, how does the IC50 read?
Answer: 1000 to 5000 nM
